Results published in patent US5856574A, “Ortho-subsituted benzoylguanidines, process for their preparation, their use as a medicament or diagnostic, and medicament containing them” (Hoechst Aktiengesellschaft, priority 1996, dated 1999).
Where a name gives a salt, the structure may show the parent alone.

Tests used:
[1] = biological target: T1, rabbit erythrocyte Na^+ /H^+ exchanger (Oryctolagus cuniculus, UniProt P23791); test: Inhibition of the rabbit erythrocyte Na^+ /H^+ exchanger (amiloride-sensitive sodium influx, flame photometry); format: cell-based, rabbit (New Zealand White); conditions: rabbit erythrocytes, cholesterol-fed, 37° C., pH 7.4
T1 construct: determine the Na+influx into the erythrocytes by way of Na^+ /H^+ exchange; endogenous in cells; host or cells: intact erythrocytes in heparinised blood of cholesterol-fed New Zealand White rabbits
T1 sequence (P23791 whole entry): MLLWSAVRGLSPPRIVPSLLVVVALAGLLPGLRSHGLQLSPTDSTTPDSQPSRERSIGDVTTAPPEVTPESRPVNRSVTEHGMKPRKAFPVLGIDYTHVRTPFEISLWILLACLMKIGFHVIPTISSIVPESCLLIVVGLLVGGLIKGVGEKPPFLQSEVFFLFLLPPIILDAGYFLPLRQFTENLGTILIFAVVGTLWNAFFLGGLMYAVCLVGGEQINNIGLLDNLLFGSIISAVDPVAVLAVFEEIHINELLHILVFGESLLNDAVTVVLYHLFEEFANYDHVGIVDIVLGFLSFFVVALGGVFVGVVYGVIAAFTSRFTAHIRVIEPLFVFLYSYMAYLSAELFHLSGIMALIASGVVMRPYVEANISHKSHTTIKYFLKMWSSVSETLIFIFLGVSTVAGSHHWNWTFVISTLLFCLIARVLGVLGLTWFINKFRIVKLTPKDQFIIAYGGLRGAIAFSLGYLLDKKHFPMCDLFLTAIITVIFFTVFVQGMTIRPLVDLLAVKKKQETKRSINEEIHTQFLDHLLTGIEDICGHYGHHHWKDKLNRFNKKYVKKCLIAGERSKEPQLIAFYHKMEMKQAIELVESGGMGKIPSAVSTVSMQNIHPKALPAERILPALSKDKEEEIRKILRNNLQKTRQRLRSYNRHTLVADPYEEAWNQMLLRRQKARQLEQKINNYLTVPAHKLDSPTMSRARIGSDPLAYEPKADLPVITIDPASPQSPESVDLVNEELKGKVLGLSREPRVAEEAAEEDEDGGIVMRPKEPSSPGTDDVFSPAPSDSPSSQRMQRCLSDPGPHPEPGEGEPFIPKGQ
Excerpt: Inhibition of the rabbit erythrocyte Na^+ /H^+ exchanger
New Zealand White rabbits (Ivanovas) were given a standard diet containing 2% cholesterol for six weeks in order to activate Na^+ /H^+ exchange and thereby making it possible to use flame photometry to determine the Na+influx into the erythrocytes by way of Na^+ /H^+ exchange. The blood was withdrawn from the aural arteries and rendered incoagulable by adding 25 IU of potassium heparin. A part of each sample was used for determining the hematocrit in duplicate by means of centrifugation. Aliquots of in each case 100 μl were used for measuring the initial content of Na^+ in the erythrocytes.
In order to determine the amiloride-sensitive sodium influx, 100 μl of each blood sample were in each case incubated, at 37° C. and pH 7.4, in 5 ml of a hyper osmolar salt/sucrose medium (mmol/l: 140 NaCl, 3 KCL, 150 sucrose, 0.1 ouabain, 20 tris(hydroxymethyl)aminomethane). After that, the erythrocytes were washed three times with an ice-cold MgCl2 /ouabain solution (mmol/l: 112 MgCl2, 0.1 ouabain) and hemolyzed in 2.0 ml of distilled water. The intracellular content of sodium was determined by flame photometry.
The net Na^+ influx was calculated from the difference between the initial sodium values and the sodium content of the erythrocytes after incubation. The amiloride-inhibitable sodium influx was obtained from the difference in the sodium content of the erythrocytes after incubating them with and without […] amiloride. This procedure was also used in the case of the novel compounds.

[2] = Intraduodenal bioavailability; format: in vivo
[3] = Plasma elimination half life, rat, i.v.; format: in vivo; conditions: iv
[4] = Plasma elimination half life, dog, i.v.; format: in vivo; conditions: iv

SMILES | IC50 [1] | Intraduodenal bioavailability [2] | half-life [3] | half-life [4]
COc1cc(Cl)c(C(=O)N=C(N)N)cc1C(F)(F)F [Example 1, 2-Chloro4-methoxy-5-trifluoromethylbenzoylguanidine hydrochloride] | 0.02 µM | good | 19.2 min | 66 min
CC(C)c1cc(C(F)(F)F)cc(C(=O)N=C(N)N)c1Cl [Example 5, 2-Chloro-3-isopropyl-5-trifluoromethylbenzoylguanidine hydrochloride] | 0.02 µM | good | 42 min | 
NC(N)=NC(=O)c1cc(C(F)(F)F)cc(C2CCCC2)c1Cl [Example 6, 2-Chloro-3-cyclopentyl-5-trifluoromethylbenzoylguanidine hydrochloride] | 0.06 µM |  |  | 
CCCc1cc(Cl)c(C(=O)N=C(N)N)cc1C(F)(F)F [Example 8, 2-Chloro4-n-propyl-5-trifluoromethylbenzoylguanidine hydrochloride] | 0.01 µM |  |  | 

Continued, values first:

IC50 [1] | Intraduodenal bioavailability [2] | half-life [3] | half-life [4] | SMILES
0.05 µM |  |  |  | NC(N)=NC(=O)c1cc(C(F)(F)F)cc(I)c1Cl [Example 2, 2-Chloro-3-iodo-5-trifluoromethylbenzoylguanidine hydrochloride]
0.07 µM |  |  |  | CCCc1cc(C(F)(F)F)cc(C(=O)N=C(N)N)c1Cl [Example 4, 2-Chloro-3-n-propyl-5-trifluoromethylbenzoylguanidine hydrochloride]
0.03 µM |  |  |  | NC(N)=NC(=O)c1cc(C(F)(F)F)c(C2CCCC2)cc1Cl [Example 7, 2-Chloro4-cyclopentyl-5-trifluoromethylbenzoylguanidine hydrochloride]
